The target in this experiment is T1, Pol III (PolC) from S. aureus (Staphylococcus aureus, UniProt P0C1P9).
T1 construct: His tag (pET15b vector) (N); made in house; host or cells: E. coli BL21(DE3)
T1 sequence (P0C1P9 1-1435): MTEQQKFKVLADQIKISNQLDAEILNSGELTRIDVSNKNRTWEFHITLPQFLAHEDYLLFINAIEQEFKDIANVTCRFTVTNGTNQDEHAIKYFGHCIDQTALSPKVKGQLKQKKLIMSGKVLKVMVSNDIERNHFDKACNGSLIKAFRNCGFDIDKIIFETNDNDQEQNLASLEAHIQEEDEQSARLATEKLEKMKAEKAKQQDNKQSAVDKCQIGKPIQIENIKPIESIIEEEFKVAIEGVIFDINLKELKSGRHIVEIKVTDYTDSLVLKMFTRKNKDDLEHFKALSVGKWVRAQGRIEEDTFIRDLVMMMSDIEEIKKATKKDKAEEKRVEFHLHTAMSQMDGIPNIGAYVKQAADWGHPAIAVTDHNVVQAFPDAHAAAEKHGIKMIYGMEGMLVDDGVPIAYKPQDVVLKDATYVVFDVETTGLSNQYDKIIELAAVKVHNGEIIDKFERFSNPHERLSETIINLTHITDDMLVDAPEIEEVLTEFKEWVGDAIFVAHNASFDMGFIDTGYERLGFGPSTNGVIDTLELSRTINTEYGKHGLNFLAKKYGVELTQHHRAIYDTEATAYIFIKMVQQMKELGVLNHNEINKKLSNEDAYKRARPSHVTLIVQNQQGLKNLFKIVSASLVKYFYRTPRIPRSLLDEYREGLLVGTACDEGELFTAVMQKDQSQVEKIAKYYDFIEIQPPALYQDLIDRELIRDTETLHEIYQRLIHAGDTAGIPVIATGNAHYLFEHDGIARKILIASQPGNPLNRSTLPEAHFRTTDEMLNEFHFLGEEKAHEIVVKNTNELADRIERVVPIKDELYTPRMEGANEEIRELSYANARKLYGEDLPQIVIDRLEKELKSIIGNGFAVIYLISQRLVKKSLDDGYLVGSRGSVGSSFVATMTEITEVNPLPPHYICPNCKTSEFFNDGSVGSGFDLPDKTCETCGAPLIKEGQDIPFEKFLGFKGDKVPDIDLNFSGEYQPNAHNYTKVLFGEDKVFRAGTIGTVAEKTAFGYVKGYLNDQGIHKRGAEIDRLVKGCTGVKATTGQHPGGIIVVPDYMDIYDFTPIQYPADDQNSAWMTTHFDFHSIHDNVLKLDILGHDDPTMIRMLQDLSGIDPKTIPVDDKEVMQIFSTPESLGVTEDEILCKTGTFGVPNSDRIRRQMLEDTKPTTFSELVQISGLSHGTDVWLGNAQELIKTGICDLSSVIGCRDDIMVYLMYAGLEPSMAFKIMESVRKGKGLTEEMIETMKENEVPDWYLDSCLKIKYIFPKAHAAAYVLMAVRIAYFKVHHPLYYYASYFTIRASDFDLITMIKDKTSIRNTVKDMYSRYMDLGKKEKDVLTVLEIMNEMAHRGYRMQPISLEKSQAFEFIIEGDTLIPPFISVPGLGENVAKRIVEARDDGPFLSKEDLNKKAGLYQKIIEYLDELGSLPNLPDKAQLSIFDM
Put plainly: Determination of the IC50 for Polymerase III (PolC), coupled pyrophosphate/ATP sulfurylase/luciferase assay. The following applies: purified His-tagged PolC 2 nM, activated calf thymus DNA, 30° C. 30 min, luminescence readout. It counts as biochemical. An excerpt: Cloning, Expression and Purification of Pol III from S. aureus
To clone polC with an N-terminal His tag, the structural gene polC is amplified from S. aureus genomic DNA with the aid of PCR. The primers SAPol 31 5′-[…]-3′ and SAPolrev 5′-[…]-3′ are used to introduce the NdeI and BamHI restriction cleavage sites respectively in front of and behind the amplified gene. After the PCR product which is 4300 bp in size has been digested with NdeI and BamHI, it is ligated into the vector pET15b (Novagen, USA), which has likewise been digested with NdeI and BamHI, and transformed into E. coli XL-1 Blue.
After transformation into E. coli BL21(DE3), the cells are cultivated for expression of PolC at 30° C. in LB medium with 100 μg/ml ampicillin until the OD595nm is 0.5, cooled to 18° C. and, after addition of 1 mM IPTG, incubated for a further 20 hours. The cells are harvested by centrifugation, washed once in PBS with 1 mM PMSF and taken up in 50 mM NaH2PO4 pH 8.0, 10 mM imidazole, 2 mM β-mercaptoethanol, 1 mM PMSF, 20% glycerol. The cells are disrupted using a French press at 12,000 psi, the cell detritus is removed by centrifugation (27,000×g, 120 min, 4° C.) and the supernatant is stirred with an appropriate amount of Ni-NTA-agarose (from Quiagen, Germany) at 4° C. for 1 hour. After the gel matrix has been packed into a column it is washed with 50 mM NaH2PO4 pH 8.0, 2 mM β-mercaptoethanol, 20 mM imidazole, 10% glycerol, and the purified protein is then eluted with the same buffer containing 100 mM imidazole. The purified protein is mixed with 50% glycerol and stored at −20° C.
Determination of the IC50 for Polymerase III
The activity of PolC is measured in an enzymatically coupled reaction, with the pyrophosphate formed during the polymerization being converted with the aid of ATP sulfurylase into ATP, which is detected using firefly luciferase. The reaction mixture contains, in a final volume of 50 μl, 50 mM Tris/Cl pH 7.5; 5 mM DTT, 10 mM MgCl2, 30 mM NaCl, 0.1 mg/ml BSA, 10% glycerol, 20 μM each DATP, dTTP, dCTP, 2 U/ml activated calf thymus DNA (from Worthington, USA), 20 μM APS and 0.06 mM luciferin. The reaction is started by adding purified PolC in a final concentration of 2 nM and is incubated at 30° C. for 30 min. The amount of pyrophosphate formed is then converted into ATP by adding ATP sulfurylase (Sigma, USA) in a final concentration of 5 nM and incubating at 30° C. for 15 min. After addition of 0.2 nM firefly luciferase, the luminescence is measured in a luminometer for 60 s. The IC50 is reported as the concentration of an inhibitor which leads to 50% inhibition of the enzymic activity of PolC.
With `CSc1nnc(CSCCn2c(=O)cc(Nc3ccc4c(c3)CCC4)[nH]c2=O)s1` [Example 15], 110 nM corresponded to half-maximal inhibition (IC50).
The value for `CCc1cc(Nc2cc(=O)n(CCSCc3nnc(C)s3)c(=O)[nH]2)ccc1C` [Example 16] was 50 nM.
The value for `CCc1cc(Nc2cc(=O)n(CCSCC(=O)N3CCN(c4ccc([N+](=O)[O-])cc4)CC3)c(=O)[nH]2)ccc1C` [Example 34] was 300 nM.
The value for `CCc1cc(Nc2cc(=O)n(CCSCc3c(C)noc3C)c(=O)[nH]2)ccc1C` [Example 42] was 80 nM; that for `CCc1cc(Nc2cc(=O)n(CCCSCC(=O)N3CCN(c4ccc(F)cc4)CC3)c(=O)[nH]2)ccc1C` [Example 47] was 400 nM.

The record behind these values is patent publication US20060122201A1, “Uracil-thioether” (priority 2002, published 2006).
